Results taken from patent US5262537A, “Derivatives of 4,5,6,7-tetrahydroimidazo-[4,5-c]pyridinyl-6-carboxylic acid” (priority 1993, dated 1993).
pIC50: −log10 of the molar value. Where two headings read alike, the source gives them in different places.

Experiments:
5-HT3 = target: T1, 5-HT3 (Rattus norvegicus, UniProt P35563); experiment: biochemical; assay type: binding, Male Sprague-Dawley rats
T1 sequence (P35563 24-483): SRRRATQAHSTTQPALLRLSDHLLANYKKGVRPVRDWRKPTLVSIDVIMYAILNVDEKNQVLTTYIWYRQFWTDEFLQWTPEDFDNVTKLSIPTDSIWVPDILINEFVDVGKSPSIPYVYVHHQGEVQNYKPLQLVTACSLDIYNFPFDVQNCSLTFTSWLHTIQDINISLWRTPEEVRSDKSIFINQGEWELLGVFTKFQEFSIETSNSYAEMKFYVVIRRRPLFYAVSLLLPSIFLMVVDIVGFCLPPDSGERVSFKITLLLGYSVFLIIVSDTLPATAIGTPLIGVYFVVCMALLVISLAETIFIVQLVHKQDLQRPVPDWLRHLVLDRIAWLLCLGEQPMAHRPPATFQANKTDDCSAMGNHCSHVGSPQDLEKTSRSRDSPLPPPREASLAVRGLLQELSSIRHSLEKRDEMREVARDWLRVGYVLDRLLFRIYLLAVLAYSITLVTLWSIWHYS
Experimental: A number of compounds in accordance with the present invention were tested for their 5-HT3 and D2 binding affinities in accord with the following procedures.
Male Sprague-Dawley rats (175-220 g) were sacrificed by decapitation and their brains removed rapidly. The entorhinal cortex was used for the 5-HT3 (5-hydroxytryptamine) binding assay and the remainder of the brain, minus the brain stem and cerebellum, was used for the D2 (dopamine) binding assay. The entorhinal cortex was harvested and prepared on the day of the assay.
The entorhinal cortex was homogenized in 20 volumes of cold 50 mM HEPES buffer, pH 7.4, while the remaining brain tissue was homogenized in 20 volumes of cold 50 mM Tris, pH 7.4. The homogenates were centrifuged at 4800×g for 15 minutes at 5° C. and the supernatants decanted. Pellets were resuspended in the original volume of HEPES or Tris. Homogenates were centrifuged and the supernatants decanted. Pellets were resuspended in the same volume of HEPES or Tris and incubated at 37° C. for 45 minutes to remove endogenous neurotransmitters. Homogenates were centrifuged and the supernatants were decanted. Pellets for D2 assays were stored at -50° C. until the day of the assay. The pellets for the 5-HT3 assay (entorhinal cortex) were resuspended in the appropriate amount of HEPES buffer and used promptly. Modifications of published assays for [^3 H]GR65630 (Kilpatrick et al., Nature: 330, 746-748 (1987)) and [^3 H]raclopride (Dewar et al., J. Pharmacol. Exp. Ther.: 250, 696-706 (1989) and Lidow et al., Proc. Natl. Acad. Sci. USA: 86, 6412-6416 (1989)) were used for the 5-HT3 and D2 binding assays, respectively.
Briefly, 0.25 ml of homogenate was incubated with either 0.2 nM of [^3 H]GR65630 or 1.0 nM of [^3 H]raclopride in a final volume of 0.5 ml. D2 binding also requires sodium chloride and potassium chloride (120 mM and 5 mM, final concentration, respectively). In the 5-HT3 assay, non-specific binding was defined in the presence of 100 uM quipazine. In the D2 assay, non-specific binding was defined in the presence of 100 uM of (+/-) sulpiride. Both assays were incubated at room temperature; [^3 H]GR65630 for 40 minutes and [^3 H]raclopride for 60 minutes. Test compounds (0.1 ml) were added to incubates where appropriate. Bound ligand was separated from free ligand by filtration and quantified using liquid scintillation spectrophotometry. IC50 values were calculate for all test compounds.

Ferret = experiment: Cisplatin Ferret Assay--Antiemetic Screening; assay type: in vivo, Male ferrets; conditions: Mustela putorius, iv, 4 h; for inhibition in vivo at 0.1 mg/kg: read-out: Ferret Cisplatin Test % Prot, 0.1 mg/Kg; for ED50: read-out: Ferret Cisplatin Test ED50
Experimental: Male ferrets (castrated, descented, 1-2 kg) were purchased from Triple F Farms, Syre, Pa. Ferrets were housed four in a cage with a 12 hour light cycle and were fed ad libitum with Ralston Purina Cat Chow. Each ferret was used unfasted for the assay after a minimum of a 24 hour acclimation time in animal facility.
Ferret Preparation. Each ferret was anesthetized with 5% isoflurane-O2in a 20 gallon aquarium for 2 to 5 minutes. After removal of the anesthetic gas, the animals were removed and weighed. Injections were made into the dorsal front paw vein using a tourniquet and a 1 ml tuberculin syringe with a 25 g needle while the animal was maintained under anesthesia using a small nose cone delivering 5% isoflurane-O2. Cisplatin was injected using a 3 ml or 5 ml syringe in the opposite paw from the study compound or saline. Recovery time from anaesthesia was 5 to 8 minutes.
Drug Preparation. Cisplatin bulk powder was weighed and dissolved in normal saline at 75° C. to provide a 5 mg/ml solution (90 mg was placed in a scintillation vial and qs with 18 ml saline). The solution was stirred and maintained at 40° C. until ready for use. The study drug was weighed and dissolved in normal saline at room temperature to provide a 1 mg/ml solution (10 mg was placed in a scintillation vial and qs with 10 ml saline). Suspensions were heated to 40° C. to bring the study compound into solution. Compounds not soluble under these conditions were not assayed.
Assay. Cisplatin was injected i.v. at 10 mg/kg into twelve anesthetized ferrets daily at time zero. Normal saline (0.5 ml) or the study compound (0.1 or 1.0 mg/kg) was injected 30 minutes later in groups of three anesthetized ferrets. Order of treatment and treatment dose was selected at random, with the remaining treatment dose assayed in the next experiment.
Experimental Observations and Data Collection. Ferrets were viewed individually. The time and number of emetic episodes were recorded for four hours. Zero time was equivalent to the time of cisplatin injection. […] Retches were recorded but not counted. The total number of episodes for each of the four groups of three ferrets (+/-S.E.) was averaged and the effect of treatment (% protection) was calculated as the percent reduction of emetic episodes compared to controls. [formula]
Percent protection values were determined from experimental controls. Experimental controls were those obtained from the day of the experiment. Onset times of the first episode were averaged and recorded for each group. Prodromal signs (lip licking, slit eyes, head shaking, salivation, scratching, clawing, walking backward, sedation, urination, and defecation) were also averaged and recorded.

[1] = 0.2 nM [3H]GR65630, rat entorhinal cortex, 40 minutes, room temperature, read-out: 5-HT3 IC50
[2] = 0.1 mg/kg i.v., 30 minutes after cisplatin 10 mg/kg i.v., percent reduction of emetic episodes vs controls, four hours
[3] = i.v., 30 minutes after cisplatin 10 mg/kg i.v., emetic episodes over four hours

Row | Compound | pIC50 (5-HT3; [1]) | inhibition in vivo at 0.1 mg/kg (Ferret; [2]) [%] | ED50 (Ferret; [3]) [mg/kg] | pIC50 (5-HT3) | inhibition in vivo at 0.1 mg/kg (Ferret) [%] | ED50 (Ferret) [mg/kg]
1 | CN1Cc2nc[nH]c2C[C@@H]1C(=O)Nc1ccccc1Oc1ccccc1 [Compd 11] | 8.09 | 15 | 0.47 | – | – | –
2 | COc1ccccc1NC(=O)[C@H]1Cc2[nH]cnc2CN1 [Compd 8] | 7.98 | 62 | – | – | – | –
3 | COc1ccccc1NC(=O)[C@@H]1Cc2[nH]cnc2C(C)(C)N1C [Compd 25] | 7.85 | 93 | 0.026 | – | – | –
4 | CN1Cc2nc[nH]c2C[C@H]1C(=O)Nc1ccccc1NC(=O)c1ccccc1 [Compd 26] | 6.54 | 0 | – | – | – | –
5 | CN1Cc2nc[nH]c2C[C@H]1C(=O)c1ccccc1 [Compd 38] | – | – | – | 7.31 | 30 | –
6 | CN1Cc2nc[nH]c2C[C@H]1C(=O)c1cc2ccccc2o1 [Compd 33, 6-(2-benzo[b]furanylcarbonyl)-5-methyl-4,5,6,7-tetrahydroimidazo[4,5-c]pyridine] | 5.69 | – | – | – | 31 | 0.43
7 | CN1Cc2nc[nH]c2C[C@H]1C(=O)Nc1nc2ccccc2s1 [Compd 22] | 7.43 | 14 | – | – | – | –

Now from value to compound, other results behind:

Row | pIC50 (5-HT3; [1]) | Compound | inhibition in vivo at 0.1 mg/kg (Ferret; [2]) [%] | ED50 (Ferret; [3]) [mg/kg] | pIC50 (5-HT3) | inhibition in vivo at 0.1 mg/kg (Ferret) [%] | ED50 (Ferret) [mg/kg]
8 | 8.20 | COc1ccc(Cl)cc1NC(=O)[C@@H]1Cc2[nH]cnc2CN1C [Compd 7] | 57 | 0.14 | – | – | –
9 | 7.32 | COc1ccccc1NC(=O)[C@H]1Cc2[nH]cnc2CN1C [Compd 3] | 9 | 2.08 | – | – | –
10 | 7.80 | CN1Cc2nc[nH]c2C[C@H]1C(=O)Nc1cccc2nsnc12 [Compd 23] | 100 | 0.016 | – | – | –
11 | 6.99 | CN1Cc2nc[nH]c2C[C@H]1C(=O)Nc1cccc2c1NCCC2 [Compd 36] | 70 | 0.081 | – | – | –
12 | 7.81 | CCOc1ccccc1NC(=O)[C@@H]1Cc2[nH]cnc2CN1C [Compd 17] | 58 | 0.2 | – | – | –
13 | 7.92 | COC(=O)c1ccccc1NC(=O)[C@H]1Cc2[nH]cnc2CN1C [Compd 4] | 33 | 0.1 | – | – | –
14 | 8.38 | CCOc1ccccc1NC(=O)[C@H]1Cc2[nH]cnc2CN1C [Compd 10] | 29 | 0.31 | – | – | –
